The data set can be described thus: Comparison of salt forms (solubility, stability). In kind it is physicochemical.

The record followed here is patent publication US20080268044A1, “Novel Process and Formulations” (Glaxo Group Limited, priority 2005, published 2008).

Turning to `Cc1cc(F)ccc1-c1nc(NC(CO)CO)nc2c1ccc(=O)n2-c1c(F)cccc1F` [sulphate, 8-(2,6-difluorophenyl)-4-(4-fluoro-2-methylphenyl)-2-{[2-hydroxy-1-(hydroxymethyl)ethyl]amino}pyrido[2,3-d]pyrimidin-7(8H)-one], the “stability of salt forms (comparison)” value is reported as “less stable than the other salt forms”.
